The record followed here is ChEMBL document CHEMBL4400545 (Bioorg Med Chem, 2019).

The structures appear in SMILES notation.

Experiment [1] concerns the target T1, Sodium- and chloride-dependent GABA transporter 1 (Mus musculus, UniProt P31648). In words: Inhibition of mouse GAT-1 expressed in HEK293 cells assessed as decrease in [3H]GABA uptake preincubated for 25 mins followed by [3H]GABA addition and measured after 4 mins by scintillation counting analysis. Type of experiment: cell-based.
The target of experiment [2] is T1, Sodium- and chloride-dependent GABA transporter 1. In words: Binding affinity to mouse GAT-1 expressed in HEK293 cells after 4 hrs in presence of NO711 by LC-ESI-MS/ms analysis. In kind it is cell-based.
Experiment [3] relates to Sodium- and chloride-dependent GABA transporter 2 (Mus musculus). Description: Inhibition of mouse GAT-3 expressed in HEK293 cells assessed as remaining [3H]GABA uptake at 100 uM preincubated for 25 mins followed by [3H]GABA addition and measured after 4 mins by scintillation counting analysis.
Experiment [4] addresses T2, GABA transporter 4 (Mus musculus) (UniProt P31650).
T2 sequence (whole entry): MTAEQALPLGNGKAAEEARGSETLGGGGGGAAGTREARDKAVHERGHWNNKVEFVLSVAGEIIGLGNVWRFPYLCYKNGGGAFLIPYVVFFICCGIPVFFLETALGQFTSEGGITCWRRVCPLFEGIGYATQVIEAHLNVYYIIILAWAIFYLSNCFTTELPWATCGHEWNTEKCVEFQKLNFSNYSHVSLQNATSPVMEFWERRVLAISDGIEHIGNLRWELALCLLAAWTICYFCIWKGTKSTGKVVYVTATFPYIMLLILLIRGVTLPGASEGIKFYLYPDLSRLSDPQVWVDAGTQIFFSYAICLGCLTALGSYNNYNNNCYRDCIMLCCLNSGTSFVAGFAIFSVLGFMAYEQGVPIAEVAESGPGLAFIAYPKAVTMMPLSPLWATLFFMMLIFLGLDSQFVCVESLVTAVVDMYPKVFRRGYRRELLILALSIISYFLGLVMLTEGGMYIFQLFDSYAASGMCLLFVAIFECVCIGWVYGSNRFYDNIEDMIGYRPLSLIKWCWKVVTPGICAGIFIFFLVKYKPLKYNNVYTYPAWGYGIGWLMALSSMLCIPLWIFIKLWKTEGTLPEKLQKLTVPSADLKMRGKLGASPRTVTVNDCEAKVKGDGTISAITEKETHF
Description: Inhibition of mouse GAT-4 expressed in HEK293 cells assessed as remaining [3H]GABA uptake at 100 uM preincubated for 25 mins followed by [3H]GABA addition and measured after 4 mins by scintillation counting analysis. In kind it is cell-based.

In experiment [5] the test system is Sodium- and chloride-dependent betaine transporter (Mus musculus). In words: Inhibition of mouse GAT-2 expressed in HEK293 cells assessed as remaining [3H]GABA uptake at 100 uM preincubated for 25 mins followed by [3H]GABA addition and measured after 10 mins by scintillation counting analysis.
Experiment [6] addresses Sodium- and chloride-dependent GABA transporter 1 (Mus musculus) (UniProt P31648). In words: Inhibition of mouse GAT-1 assessed as percentage of remaining specific binding of NO711 at 1 uM after 4 hrs by LC-ESI-MS/ms analysis relative to control.
Experiment [7] shares this target. Description: Inhibition of mouse GAT-1 assessed as percentage of remaining specific binding of NO711 at 100 nM after 4 hrs by LC-ESI-MS/ms analysis relative to control.

For orientation: IC50 means the point on the concentration scale where inhibition reaches its midpoint. For orientation: Ki means a dissociation constant, usually derived from enzyme kinetics or from competition with a known ligand. For the compound `O=C(O)C1=CCCN(CCO/N=C/c2ccccc2-c2ccc(Cl)cc2Cl)C1`, in experiment [1], the half-inhibitory concentration (IC50) is 5.37 nM. The Ki in experiment [2] was 5.13 nM.
For the compound `O=C(O)[C@@H]1CCCN(CCO/N=C/c2ccccc2-c2ccc(F)cc2Cl)C1`, the figures for the Activity in experiment [3], in experiment [4] and in experiment [5] were 77.7%, 50.9% and 50.1%, respectively. Further, the IC50 in experiment [1] is 32.4 nM. Moreover, the Ki in experiment [2] is 2.82 nM.
In the case of `O=C(O)C1=CCCN(CCO/N=C/c2ccccc2-c2ccc(F)cc2F)C1`, the concentration for half-maximal inhibition (IC50) in experiment [1] was 56.2 nM. Moreover, in experiment [2], the inhibitory constant (Ki) was 4.47 nM.
On to `O=C(O)[C@@H]1CCCN(CCO/N=C/c2ccccc2-c2ccc(F)cc2F)C1`, for which the values for the Activity in experiment [3], in experiment [4] and in experiment [5] were 75.5%, 62.5% and 56.6%, respectively. In addition, the IC50 in experiment [1] was 102 nM. For the same compound, the Ki in experiment [2] was 5.89 nM.
As to `O=C(O)C1CCCN(CCO/N=C/c2ccccc2-c2ccc(F)cc2F)C1` (racemic), the Activity in experiment [6] was determined as 17%; in experiment [3] it was 90.9%; in experiment [7], 16%; in experiment [4], 62.5%; in experiment [5] it was 78.3%. Also, the IC50 in experiment [1] is 85.1 nM. In addition, in experiment [2], the Ki is 13.8 nM.
On to `O=C(O)C1CCCN(CCO/N=C/c2ccccc2-c2ccc(F)cc2Cl)C1` (racemic), for which the Activity in experiment [6] was 11%; in experiment [3], 62.6%; in experiment [7] it was “Below limit of detection”; in experiment [4] it was 80.9%; in experiment [5], 61.6%. Moreover, in experiment [1], the IC50 was 66.1 nM. The inhibition constant Ki in experiment [2] is 10 nM.
Consider `CC(/C=N/OCCN1CCCC(C(=O)O)C1)(CCC#N)c1ccccc1` (racemic), for which the figures for the Activity in experiment [6] and in experiment [7] were 7% and 48%, respectively.
As to `Cc1ccccc1-c1ncccc1/C=N/OCCN1CCCC(C(=O)O)C1` (racemic), in experiment [6], the Activity came to 22%.
Take `Cc1onc(-c2ccc(Cl)cc2)c1/C=N/OCCN1CCCC(C(=O)O)C1` (racemic): the Activity in experiment [6] was 7%; in experiment [7], 48%.
In the case of `O=C(O)C1CCCN(CCO/N=C/C(c2ccccc2)c2ccccc2)C1` (racemic), the Activity is 41% in experiment [6] and 20% in experiment [7].
As for `O=C(O)C1CCCN(CCO/N=C/c2c[nH]nc2-c2ccc(F)cc2)C1` (racemic), the Activity was found to be 7% in experiment [6] and 48% in experiment [7].
For the compound `O=C(O)C1CCCN(CCO/N=C/c2cc(F)ccc2-c2ccccc2)C1` (racemic), the Activity in experiment [6] was 58%; in experiment [7], 16%.
With `O=C(O)C1CCCN(CCO/N=C/c2cc(F)ccc2-c2ccccc2Cl)C1` (racemic), the Activity in experiment [6] is 41%; in experiment [7], 16%.
Consider `O=C(O)C1CCCN(CCO/N=C/c2cc(F)ccc2-c2ccccc2F)C1` (racemic), for which the Activity was 42% in experiment [6] and 16% in experiment [7].
For `O=C(O)C1CCCN(CCO/N=C/c2cc3c(cc2-c2ccc(Cl)cc2Cl)OCO3)C1` (racemic), in experiment [6], the Activity stood at 19%.
Regarding `O=C(O)C1CCCN(CCO/N=C/c2cc3c(cc2-c2ccccc2)OCO3)C1` (racemic), the Activity in experiment [6] stood at 19%.
Still for that read-out and setting: as for `O=C(O)C1CCCN(CCO/N=C/c2cc3c(cc2-c2ccccc2Cl)OCO3)C1` (racemic), the figure is 19%; as for `O=C(O)C1CCCN(CCO/N=C/c2cc3c(cc2-c2ccccc2F)OCO3)C1` (racemic), 19%.
With `O=C(O)C1CCCN(CCO/N=C/c2ccc(-c3ccc(C(F)(F)F)cc3Cl)o2)C1` (racemic), the Activity is 83% in experiment [6] and “Below limit of detection” in experiment [7].
In the case of `O=C(O)C1CCCN(CCO/N=C/c2ccc(-c3ccccc3)cc2)C1` (racemic), the Activity was 80% in experiment [6] and 20% in experiment [7].
The corresponding values for `O=C(O)C1CCCN(CCO/N=C/c2ccc(-c3ccccc3OC(F)(F)F)o2)C1` (racemic) are 84% and “Below limit of detection”.
Consider `O=C(O)C1CCCN(CCO/N=C/c2ccc3c(c2)Cc2ccccc2-3)C1` (racemic), for which the Activity in experiment [6] worked out at 37%.
`O=C(O)C1CCCN(CCO/N=C/c2cccc(-c3ccccc3)c2)C1` (racemic): the Activity in experiment [6] was found to be 87%; in experiment [7], 20%.
As to `O=C(O)C1CCCN(CCO/N=C/c2cccc3c2OCO3)C1` (racemic), the Activity in experiment [6] is 32%.
Take `O=C(O)C1CCCN(CCO/N=C/c2ccccc2-c2c(F)cccc2F)C1` (racemic): the Activity stood at 39% in experiment [6] and 17% in experiment [7].
As for `O=C(O)C1CCCN(CCO/N=C/c2ccccc2-c2cc(F)ccc2F)C1` (racemic), the Activity in experiment [6] stood at 71%; in experiment [7] it was 17%.
As for `O=C(O)C1CCCN(CCO/N=C/c2ccccc2-c2ccc(Cl)cc2)C1` (racemic), the figures for the Activity result in experiment [6] and in experiment [7] were “Below limit of detection” and 38%, respectively.
Turning to `O=C(O)C1CCCN(CCO/N=C/c2ccccc2-c2ccc(Cl)cc2F)C1` (racemic), the Activity in experiment [6] worked out at 24%; in experiment [7], 17%.
In the case of `O=C(O)C1CCCN(CCO/N=C/c2ccccc2-c2ccc(F)cc2)C1` (racemic), the Activity result is “Below limit of detection” in experiment [6] and 38% in experiment [7].
For the compound `O=C(O)C1CCCN(CCO/N=C/c2ccccc2-c2ccc3ccccc3c2)C1` (racemic), the Activity in experiment [6] was 89%; in experiment [7] it was “Below limit of detection”.
As for `O=C(O)C1CCCN(CCO/N=C/c2ccccc2-c2cccc(Cl)c2)C1` (racemic), the Activity result is “Below limit of detection” in experiment [6] and 38% in experiment [7].
As for `O=C(O)C1CCCN(CCO/N=C/c2ccccc2-c2cccc(F)c2)C1` (racemic), the Activity result in experiment [6] was “Below limit of detection”; in experiment [7], 38%.
As for `O=C(O)C1CCCN(CCO/N=C/c2ccccc2-c2cccc(F)c2F)C1` (racemic), the Activity in experiment [6] came out at 39%; in experiment [7], 17%.
As to `O=C(O)C1CCCN(CCO/N=C/c2ccccc2-c2ccccc2)C1` (racemic), the values for the Activity in experiment [6] and in experiment [7] were 47% and 20%, respectively.
For `O=C(O)C1CCCN(CCO/N=C/c2ccccc2-c2ccccc2Cl)C1` (racemic), in that order: 26% and “Below limit of detection”.
For the compound `O=C(O)C1CCCN(CCO/N=C/c2ccccc2-c2ccccc2F)C1` (racemic), the Activity in experiment [6] was 25%; in experiment [7], “Below limit of detection”.
For `O=C(O)C1CCCN(CCO/N=C/c2ccccc2-c2cccnc2)C1` (racemic), the Activity in experiment [6] came out at 37%.
`O=C(O)C1CCCN(CCO/N=C/c2ccccc2-c2ccco2)C1` (racemic): the Activity in experiment [6] was found to be 32%.
With `O=C(O)C1CCCN(CCO/N=C/c2ccccc2-c2cccs2)C1` (racemic), the results for the Activity in experiment [6] and in experiment [7] were 7% and 48%, respectively.
As for `O=C(O)C1CCCN(CCO/N=C/c2ccccc2-n2cccn2)C1` (racemic), in experiment [6], the Activity came to 37%.
For the compound `O=C(O)C1CCCN(CCO/N=C/c2ccccc2Oc2ccccc2)C1` (racemic), in experiment [6], the Activity was found to be 37%.
With `O=C(O)C1CCCN(CCO/N=C/c2cccn2-c2ccc(C(F)(F)F)cc2)C1` (racemic), the Activity in experiment [6] was 91%; in experiment [7] it was “Below limit of detection”.
On to `O=C(O)C1CCCN(CCO/N=C/c2cccnc2-c2ccc(Cl)cc2)C1` (racemic), for which, in experiment [6], the Activity was determined as 22%.
As for `O=C(O)C1CCCN(CCO/N=C/c2cccnc2-c2ccc(Cl)cc2Cl)C1` (racemic), the Activity in experiment [6] was 31%; in experiment [7] it was “Below limit of detection”.
As to `O=C(O)C1CCCN(CCO/N=C/c2cccnc2-c2cccc(Cl)c2)C1` (racemic), in experiment [6], the Activity was determined as 32%.
Still for that read-out and setting: the result for `O=C(O)C1CCCN(CCO/N=C/c2cccnc2-c2cccc(F)c2)C1` (racemic) reads 22%; that for `O=C(O)C1CCCN(CCO/N=C/c2cccnc2-c2ccccc2F)C1` (racemic), 32%.
For the compound `O=C(O)C1CCCN(CCO/N=C/c2sccc2-c2ccc(F)cc2Cl)C1` (racemic), the values for the Activity in experiment [6] and in experiment [7] were 24% and “Below limit of detection”, respectively.
For the compound `Cc1ccsc1C(=CCCN1CCC[C@@H](C(=O)O)C1)c1sccc1C` [TIAGABINE], the Ki in experiment [2] is 55 nM.
